Data on 10 compounds can be found in patent US8003811B2, “Nitric oxide donor compounds” (Nicox S.A., priority 2008, dated 2011).

SMILES strings stand for the structures.

Experiment [1] has as its system isolated rabbit thoracic aorta preparations. Briefly: Assay on vascular tone: vasorelaxation in isolated aortic rings precontracted with noradrenaline. It counts as cell-based. As to conditions: for EC50: Oryctolagus cuniculus, read-out: EC50 (μM) ± sem. The protocol:
The ability of the compounds of the invention to induce vasorelaxation in comparison to precursor compounds, was tested in vitro in isolated rabbit thoracic aorta preparations (Wanstall J. C. et al., Br. J. Pharmacol., 134:463-472, 2001). Male New Zealand rabbits were anaesthetized with thiopental-Na (50 mg/kg, iv), sacrificed by exsanguinations and then the thorax was opened and the aorta dissected. Aortic ring preparations (4 mm in length) were set up in physiological salt solution (PSS) at 37° C. in small organ chambers (5 ml). The composition of PSS was (mM): NaCl 130, NaHCO3 14.9, KH2PO4 1.2, MgSO4 1.2, HEPES 10, […] (95% O2/5% CO2; pH 7.4). Each ring was mounted under 2 g passive tension. Isometric tension was recorded with a Grass transducer (Grass FT03) attached to a BIOPAC MP150 System. Preparations were allowed to equilibrate for 1 h, and then contracted submaximally with noradrenaline (NA, 1 μM) and, when the contraction was stable, acetylcholine (ACh, 10 μM) was added. A relaxant response to ACh indicated the presence of a functional endothelium. […] When a stable precontraction was reached, a cumulative concentration-response curve to either of the vasorelaxant agents was obtained in the presence of a functional endothelium. Each arterial ring was exposed to only one combination of inhibitor and vasorelaxant. Moreover, the effect of the soluble guanylyl cyclase inhibitor ODQ (1-H-(1,2,4)-oxadiazol(4,3-a)quinoxalin-1-one) on vasorelaxation elicited by the compounds was examined preincubating the aortic rings with ODQ (10 μM) for 20 min.
Responses to relaxing agents are expressed as a percentage of residual contraction and plotted against concentration of test compound. EC50 values (where EC50 is the concentration producing 50% of the maximum relaxation to the test compound) were interpolated from these plots. During the experimental period, the plateau obtained with NA was stable without significant spontaneous loss of contraction in the aortic rings.
Furthermore, in experiments performed in the presence of ODQ (10 μM), the vasorelaxant responses to tested compounds were inhibited.

The subject of experiment [2] is Human Embryonic Kidney (HEK293) cell. Briefly: cGMP accumulation assay. It counts as cell-based. The note with it: intracellular cGMP, HEK293 cells, 30 min, with L-NAME, IBMX 100 μM and BAY 41-2272 1 μM. The protocol:
The ability of the compounds of the invention to increase intracellular cGMP in comparison to vehicle was tested in vitro in Human Embryonic Kidney (HEK293) cell preparations. The method followed was as that reported in literature with minor modifications (Ongini et al., PNAS 2004; 101(22):8497-502. Ronchetti et al., Eur J. Pharmacol. 2006; 532(1-2):162-9).
Briefly, HEK293 cells were washed once with Hank's Balance Salt Solution (HESS) supplemented with HEPES (10 mM), MgCl2 (5 mM) and 0.05% ascorbic acid. Then they were pre-incubated for 20 min with a nitric oxide synthase inhibitor, N-nitro-L-arginine methyl ester (L-NAME) (300 μM) so to lower endogenous NO production. The cells were then exposed for 30 min to either vehicle (DMSO 1%) or increasing concentrations of test compounds (up to 100 μM) in presence of the phosphodiesterase inhibitor, 3-isobutyl-1-methylxanthine (IBMX, 100 μM) and the NO-independent activator/modulator of soluble guanylyl-cyclase, BAY 41-2272 (1 μM). The reaction was ended by the removal of the incubating buffer and the addition of 50 μl/well of 100% ice-cold ethanol. The plate was then dried under hot air steam and the cell residues dissolved, extracted and analysed using commercially available cyclic GMP enzyme immunoassay kit (Cayman Chemical, Ann Arbor, Mich., U.S.A.). Data obtained with the compounds of the present invention, expressed as % of vehicle at their respective maximal concentration (100 μM), are reported in Table 2.

The test system of experiment [3] is conscious spontaneously hypertensive rats (SHRs). Description: Assay for antihypertensive activity (in vivo), telemetry. Also on record: species or system rat. The note with it: for Δ SBP in SHR (mmHg) 2-6 hrs / Δ SBP in SHR (mmHg) 21-24 hrs / Δ SBP in SHR (mmHg) 25-48 hrs / Δ SBP in SHR (mmHg) 12 hrs: delta versus own baseline. The method, then:
Assay for Antihypertensive Activity (In Vivo)
The ability of the compounds of the invention to decrease blood pressure was evaluated in conscious spontaneously hypertensive rats (SHRs). SHRs (250-300 g) received a single oral dose of tested compounds. Systolic blood pressure (SBP) and heart rate were monitored by telemetry for […] after dosing. SBP was evaluated before (baseline) and at different time points (i.e. 2-6, 12, 21-24, 25-48 hours) following treatment by oral administration of the compounds. The data were processed both as the absolute value or as a delta between the absolute value and its own baseline.
The Dataquest IV telemetry system (Data Sciences International) was used for measurement of systolic pressure, diastolic pressure, mean arterial pressure, heart rate, and motor activity. The monitoring system consists of a transmitter (radio frequency transducer model TA11PA), receiver panel, consolidation matrix, and personal computer with accompanying software. Before the device was implanted, calibrations were verified to be accurate within ±3 mmHg. Rats were anesthetized with ketamine/xylazine/acepromazine, and the flexible catheter of the transmitter was surgically secured in the abdominal aorta just below the renal arteries. The transmitter was sutured subcutaneously. Rats were housed in individual cages after the operation. Each cage was placed over the receiver panel that was connected to the personal computer for data acquisition. The rats were unrestrained and free to move within their cages. Hemodynamic data were sampled every 2 minutes for 10 seconds.

Where [4] appears, read: vasorelaxation of rabbit aortic rings precontracted with noradrenaline 1 μM, functional endothelium.

Regarding `O=C(CCCC(CO[N+](=O)[O-])O[N+](=O)[O-])O[C@@H]1CO[C@H]2[C@@H]1OC[C@H]2O` (stereo partly drawn) [Example 1, (3R,3aR,6R,6aR)-6-hydroxyhexahydrofuro[3,2-b]furan-3-yl 5,6-bis(nitrooxy)hexanoate], the concentration for a half-maximal effect (EC50) in experiment [1] (setting [4]) was found to be 0.11 ± 0.03 µM. The “% of vehicle (mean ± sem at 100 μM)” value in experiment [2] is listed as 1029.6 ± 80.2 % of vehicle. In addition, the “BP lowering compared to precursor compound (isomannide)” value in experiment [3] (SHR, single oral dose, result in words) is “BP lowering with extended peak effect and duration of action”. Further, in experiment [3] (single oral dose 4.4 mpk), the “Δ SBP in SHR (mmHg) 2-6 hrs” value is −13 mmHg, the “Δ SBP in SHR (mmHg) 21-24 hrs” value was −20 mmHg, the “Δ SBP in SHR (mmHg) 25-48 hrs” value is given as −16 mmHg and the “Δ SBP in SHR (mmHg) 12 hrs” value is given as −16 mmHg.
As to `O=C(CCCCCO[N+](=O)[O-])O[C@@H]1CO[C@H]2[C@@H]1OC[C@H]2OC(=O)CCCCCO[N+](=O)[O-]` [Example 2, (3R,3aR,6R,6aR)-hexahydrofuro[3,2-b]furan-3,6-diyl bis(6-(nitrooxy)hexanoate)], in experiment [1] (setting [4]), the EC50 was 3.1 ± 0.9 µM. In addition, in experiment [2], the “% of vehicle (mean ± sem at 100 μM)” value is recorded as 1082.67 ± 163.4 % of vehicle.
In the same order, the values of `O=C(CCCCCO[N+](=O)[O-])O[C@@H]1CO[C@H]2[C@@H]1OC[C@H]2O` [Example 3, (3R,3aR,6R,6aR)-6-hydroxyhexahydrofuro[3,2-b]furan-3-yl 6-(nitrooxy)hexanoate] are 2.5 ± 0.6 µM and 677.83 ± 79.6 % of vehicle.
For `O=C(CCC[C@@H](CO[N+](=O)[O-])O[N+](=O)[O-])O[C@@H]1CO[C@H]2[C@@H]1OC[C@H]2O` [Example 4], the EC50 in experiment [1] (setting [4]) stood at 0.11 ± 0.02 µM. Besides, the “% of vehicle (mean ± sem at 100 μM)” value in experiment [2] is 986.3 ± 90.0^ % of vehicle.
As to `O=C(CCC[C@H](CO[N+](=O)[O-])O[N+](=O)[O-])O[C@@H]1CO[C@H]2[C@@H]1OC[C@H]2O` [Example 5, (R)-((3R,3aR,6R,6aR)-6-hydroxyhexahydrofuro[3,2-b]furan-3-yl) 5,6-bis(nitrooxy)hexanoate], in experiment [2], the “% of vehicle (mean ± sem at 100 μM)” value is 668 ± 64.7 % of vehicle.
Take `O=[N+]([O-])OCC(CCCCO[C@@H]1CO[C@H]2[C@@H]1OC[C@H]2O)O[N+](=O)[O-]` (stereo partly drawn) [Example 6, 6-((3R,3aR,6R,6aR)-6-hydroxyhexahydrofuro[3,2-b]furan-3-yloxy)hexane-1,2-diyl dinitrate]: the EC50 in experiment [1] (setting [4]) was found to be 0.91 ± 0.33 µM. For the same compound, the “% of vehicle (mean ± sem at 100 μM)” value in experiment [2] is on record as 1620 ± 205.0 % of vehicle.
As for `O=C(O[C@@H]1CO[C@H]2[C@@H]1OC[C@H]2O)N1CCC(O[N+](=O)[O-])CC1` [Example 7, (3R,3aR,6R,6aR)-6-hydroxyhexahydrofuro[3,2-b]furan-3-yl 4-(nitrooxy)piperidine-1-carboxylate], the EC50 in experiment [1] (setting [4]) stood at 4.4 ± 1.9 µM.
With `CC(C)(CCOC(=O)O[C@@H]1CO[C@H]2[C@@H]1OC[C@H]2O)CC(CO[N+](=O)[O-])O[N+](=O)[O-]` (stereo partly drawn) [Example 8, 3,3-dimethyl-5,6-bis(nitrooxy)hexyl (3R,3aR,6R,6aR)-6-hydroxyhexahydrofuro[3,2-b]furan-3-yl carbonate], in experiment [1] (setting [4]), the concentration giving a half-maximal response (EC50) worked out at 0.06 ± 0.01 µM. Further, the “% of vehicle (mean ± sem at 100 μM)” value in experiment [2] is 564 ± 59.0 % of vehicle.
The corresponding values for `O=C(CCOCC(CO[N+](=O)[O-])O[N+](=O)[O-])O[C@@H]1CO[C@H]2[C@@H]1OC[C@H]2O` (stereo partly drawn) [Example 13, (3R,3aR,6R,6aR)-6-hydroxyhexahydrofuro[3,2-b]furan-3-yl 3-(2,3-bis(nitrooxy)propoxy)propanoate] are 0.1 ± 0.03 µM and 683 ± 86.3 % of vehicle.
`O[C@@H]1CO[C@H]2[C@@H]1OC[C@H]2O` [Isomannide, 1,4:3,6-dianhydro-D-mannitol, reference compound]: in experiment [1] (rabbit aortic rings precontracted with noradrenaline, result in words), the “relaxation (concentration-response curve)” value is “does not produce relaxation at any of the concentration tested”. The “EC50 (μM) ± sem” value in experiment [1] (setting [4]) was “no effect”. For the same compound, in experiment [3] (single oral dose 2.4 mpk), the “Δ SBP in SHR (mmHg) 2-6 hrs” value is on record as −3 mmHg, the “Δ SBP in SHR (mmHg) 21-24 hrs” value is −6 mmHg, the “Δ SBP in SHR (mmHg) 25-48 hrs” value was −6 mmHg and the “Δ SBP in SHR (mmHg) 12 hrs” value is recorded as −9 mmHg.
